Patent publication US20240058265A1, “TREATMENT OF OCULAR DISEASES USING ENDOTHELIN RECEPTOR ANTAGONISTS” (Perfuse Therapeutics, Inc., priority 2021, published 2024)

System: elevated IOP rat eye
Assay: Morrison's rat model of glaucoma (RGC counts, PERG)
Assay type: in vivo, Brown Norway rats
Conditions: topical eye drops 100 μg per dose, five days a week, four weeks
Excerpt: Adult male and female retired breeder Brown Norway rats (approximate age groups of 8 to 11 months) were obtained from Envigo (Indianapolis, IN). Baseline IOP measurements and pattern electroretinogram (PERG) amplitudes were collected prior to the surgery for elevation of IOP (to ensure that the IOP and PERG amplitudes were in the expected range of values). IOP was elevated in one eye (left eye) of the rats, while the corresponding right eyes served as contralateral controls. The Morrison method to elevate IOP in rats was carried out by injection of 50 μL of hypertonic saline through the episcleral veins to sclerose the trabecular meshwork. IOP was measured twice a week throughout the entire duration of the experiment. […] After detecting an elevation of IOP for two consecutive days, topical administration of eye drops ([…] (100 μg,) per dose of the tested compounds in the IOP elevated eye) was commenced and carried out for five days a week for a total of four weeks. In the 4th week of treatment, PERG analysis was carried out and rats were sacrificed by an overdose of pentobarbital (fatal-Plus). Aqueous humor was collected from the rat eyes, frozen and shipped for analysis. Retinal flat mounts were prepared, immunostained with the RGC marker, Brn3a antibody and surviving RG-Cs were counted in two eccentricities (central and peripheral).
For this study, the Morrison's model was used to induce ocular hypertension in adult male retired breeder Brown Norway rats as previously described by. Morrison et al., (Morrison J C, Moore C G, Deppmeier L M, Gold B G, Meshul C K, Johnson E C. A rat model of chronic pressure-induced optic nerve damage. Exp Eye Res. 1997;64(1):85-96).
The immunostained retinal flat mounts were obtained to measure the retinal ganglion cell (RGC) counts. To obtain immunostained retinal flat mounts, the animals were euthanized after the treatments and then their eyes were enucleated. The eye cups were fixed overnight at 4° C. in 4% paraformaldehyde (PFA) and retinal flat mounts were prepared for collecting images. The retinal ganglion cell (RGC) counting was conducted using the images of immunostained retinal flat mounts. The images were uploaded to ImageJ, a photo editor designed for biology research (Rasband, 1997-2018) and the labeled retinal ganglion cells were counted manually in two eccentricities (central and peripheral).
Pattern ERG (PERG) was used to assess the RGC function. […] Briefly, PERG signals were acquired from a DTL-plus electrode placed on the lower part of the corneal surface and the PERG waves were analyzed using the EMWIN software (LKC). The difference between the amplitude of the major positive (P1) and negative (N2) waves were calculated to decipher the PERG amplitude.

Cc1onc(NS(=O)(=O)c2ccccc2-c2ccc(-c3ncco3)cc2CN(C)C(=O)CC(C)(C)C)c1C [Edonentan, N-[[2′-[[(4,5-dimethyl-3-isoxazolyl)amino]sulfonyl]-4-(2-oxazolyl)[1,1′-biphenyl]-2-yl]methyl]-N,3,3-trimethylbutanamide]
RGC function (PERG): maintained RGC function | RGC loss (RGC counts, retinal flat mounts): prevented RGC loss
